From patent publication US5801174A, “Fused indole and quinoxaline derivatives, their preparation and use” (Neurosearch A/S, priority 1994, dated 1998)

Tests used:
[1] = system: cultured cerebral cortex neurons; experiment: 3H-GABA release, cultured cerebral cortex neurons; assay type: cell-based; details: Cerebral cortex neuron; inhibition of stimulated 3H-GABA release, mouse cortical neurons, Table 1
Description: The compounds of the invention have also been tested for their ability to inhibit GABA release from cultured cerebral cortex neurons in the following test:
^3 H-GABA Release, Cortical Neurons
Background: Neurons which express receptors for excitatory amino acids can be depolarized by such compounds and this depolarization will ultimately lead to a release of transmitter substance from the neurons. Cultured neurons obtained from 15-day-old mouse embryo cortex are mainly GABAergic and express all types of excitatory amino acid receptors. This means that they can be stimulated by high potassium or by the excitatory amino acids, NMDA, AMPA and kainate to release their neurotransmitter GABA.
^3 H-GABA may be used to label the GABA transmitter pool in the neurons and the release of ^3 H-GABA from the neurons may be used as a simple functional model for studies of the effects of excitatory amino acids and their antagonists.
Method: Cerebral cortices of 16-day-old mouse embryos are chopped in 0.4×0.4 mm cubes. The tissue is dissociated by mild trypsinization (0.1% (wt/vol) trypsin, 37° C., 15 min) and subsequently inoculated into poly-L-lysine-coated 3-cm Petri dishes containing a slightly modified DMEM (24.5 mM KCI, 30 mM glucose) supplemented with p-aminobenzoate (7 μM), insulin (100 mU/L) and 10% (vol/vol) horse serum. Cells are maintained in culture for 5-7 days with the addition of the antimitotic agent cytosine arbinoside (40 μM) from day 2 in vitro to prevent glial profileration. For further details and references, see Drejer et al. Exp. Brain Res. 47, 259 (1982).
Release experiments are performed using the model described by Drejer et al. Life Sci. 38, 2077 (1986). Cerebral cortex neurons cultured in Petri dishes (30 mm) are added 100 μM γ-vinyl-GABA one hour before the experiment in order to inhibit degradation of GABA in the neurons. 30 min before the experiment 5 μCi ^3 H-GABA is added to each culture and after this preloading period the cell monolayer at the bottom of the dish is covered with a piece of nylon mesh to protect the cells against mechanical damage and to facilitate dispersion of medium over the cell layer. The preloading medium is removed and the Petri dishes are placed in a superfusion system consisting of a peristaltic pump continously delivering thermostated 37° C. superfusion medium HEPES buffered saline (HBS): 10 mM HEPES, 135 mM NaCl, 5 mM KCI, 0.6 mM MgSO4, 1.0 mM CaCl2 and 6 mM D-glucose; pH 7.4) from a reservoir to the top of the slightly tilted Petri dish. The medium is continously collected from the lower part of the dish and delivered to a fraction collector. Initially, the cells are superfused with HBS for 15 min (flow rate 2 ml/min). Then the cells are stimulated for 30 sec every 4 min by changing the superfusion medium from HBS to a corresponding medium containing […].
Test subtances are dissolved in 50% DMSO, 48% ethanol. The final DMSO and ethanol concentration in the assay must not exceed 0.1%.
The stimulated release of ^3 H-GABA (cpm) are corrected for the mean basal release(cpm) before and after stimulation.
The stimulated release in the presence of antagonists are expressed relative to the stimulated release and the IC50 value for the antagonist is calculated (the concentration (μM) of the test substance which inhibit 50% of the stimulated ^3 H-GABA release).
(§1) The test results obtained by testing the compounds of the invention for their in-vitro AMPA receptor affinity and their ability to inhibit GABA release are presented in the following table: […]

[2] = system: AMPA-induced clonic seizures in NMRI mice; experiment: AMPA-induced clonic seizures; assay type: in vivo; details: Mus musculus; i.v. 5 min (or p.o. 30 min) before 0.3 μg icv AMPA, 10 female NMRI mice per dose; route of the value not given; read-out: ED50 (dose inhibiting 50% of the mice from having clonic seizures)
Experimental: The compound, 8-methyl-5-(4(N,N-dimethylsulphamoyl)-phenyl)-6,7,8,9-tetrahydro-1H-pyrrolo[3,2-h]isoquinoline-2,3-dione-3-oxime has also been tested for its ability to inhibit the clonic seizures induced by AMPA in the following test:
In Vivo activity (AMPA-induced clonic seizures)
AMPA given icv (intracerebroventricular) (15 μg/kg) to NMRI mice induces clonic seizures which should be inhibited by non-NMDA receptor antagonists. Method: Test compound was given i.v. 5 min (or p.o. 30 min) before a 0.3 μg icv administration of AMPA to 10 female NMRI mice (weighing 24-26 g) per dose. The number of mice experiencing clonic seizures within the next 5 min was noted. An ED50 value was calculated as the dose inhibiting 50% of the mice from having clonic seizures.

[3] = system: gerbil hippocampus CA1-layer, global ischaemia; experiment: Transient Forebrain Ischemia Model (2-VO Gerbils); assay type: in vivo; details: 30 mg/kg i.p. 30, 60 and 90 min post occlusion (total 90 mg/kg); ischaemic score 4 days later; Mann-Whitney test
Experimental: The compound, 8-methyl-5-(4-(N,N-dimethylsulphamoyl)-phenyl)-6,7,8,9-tetrahydro-1H-pyrrolo[3,2-h]isoquinoline-2,3-dione-3-oxime has also been tested in the following animal model of global ischaemia:
Transient Forebrain Ischemia Model (2-VO Gerbils)
Gerbils were anaesthetized with halothane, right and left carotid arteries located and occluded for 4 minutes. Animals were kept warm before and after the operation using heating lamps. During the operation the gerbils were placed on heating plates, body temperature controlled and maintained at 37°±0.5° C. Postocclusion, the gerbils were divided in two groups. One group received 30 mg/kg test compound i.p. 30, 60, and 90 min post occlusion (total dose was 90 mg/kg). The control group received 5.5% glucose i.p. at the same time intervals. Four days later, the animals were sacrificed, brains removed and cooled to -70° C. Thereafter, the brains were sectioned in […] thick sections of which 5-7 with hippocampal tissue were selected and stained with hematoxylin eosine (HE).
Based upon the degree of hippocampal damage, each hippocampus was categorised into one of four groups (Group 1: no damage in the CA1-layer; Group 2: the CA1-layer partly damaged; Group 3: the CA1-layer completely damaged; and Group 4: damage in more than just the CA1-layer). […]

[4] = molecular target: AMPA receptor; experiment: AMPA receptor binding affinity (in vitro); details: Table 1
Description: In Vitro activity (receptor affinity):
as §1

Structure (SMILES)	IC50 [1]	ED50 [2]	neuroprotective effect in the gerbil 2-VO model [3]	IC50 [4]
CN1CCc2c(-c3ccc(S(=O)(=O)N(C)C)cc3)cc3c(c2C1)NC(=O)C3=NO [8-methyl-5-(4-(N,N-dimethylsulphamoyl)-phenyl)-6,7,8,9-tetrahydro-1H-pyrrolo[3,2-h]-isoquinoline-2,3-dione-3-oxime]	120 nM	3 mg/kg	significant neuroprotective effect	20 nM
CN1CCc2c(-c3ccc(S(=O)(=O)NCCO)cc3)cc3c(c2C1)NC(=O)C3=NO [8-methyl-5-(4-(N-(2-hydroxyethyl)sulphamoyl)-phenyl)-6,7,8,9-tetrahydro-1H-pyrrolo[3,2-h]-isoquinoline-2,3-dione-3-oxime]	330 nM	–	–	40 nM
